Reference: paper PMC9032663, “α-Glucosidase Inhibitory and Antimicrobial Benzoylphloroglucinols from Garcinia schomburgakiana Fruits: In Vitro and In Silico Studies” (Molecules, 2022)
In brackets after ≈: the same amount, converted by molar mass. Where two headings read alike, the source gives them in different places.

Tests used:
α-glucosidase = α-glucosidase inhibition assay; assay type: biochemical, yeast; conditions: in vitro; read-out: α-glucosidase inhibitory activity IC50
Experimental: The enzymatic reaction was carried out at 37 °C for 20 min and stopped by adding 0.2 M Na2CO3 (130 μL). Enzymatic activity was quantified by measuring absorbance at 405 nm. All samples were analyzed in triplicate at five different concentrations around the IC50 values, and the mean values were retained.

Acinetobacter baumannii = assay: agar well diffusion antibacterial assay; assay type: cell-based; conditions: A. baumannii, at the tested concentration
Experimental: (§1) The agar well diffusion method was used to evaluate the antibacterial activity of the isolated compounds on antibiotic-resistant, pathogenic bacteria Staphylococcus aureus, Enterococcus faecium, and Acinetobacter baumannii. Three bacterial pathogens were cultured in nutrient broth at 37 °C for 18 h. The cultures were diluted with sterile 0.9% NaCl to obtain bacterial solutions of 1.5 × 10^8 CFU/mL. This solution with a volume of 100 μL was spread on a Mueller–Hinton agar plate. Holes with a diameter of 8 mm were punched aseptically to create wells on the surface of the Mueller–Hinton agar. The compounds were dissolved in DMSO. The amount of 50 µg of each compound solution was inserted into the wells. The plates were incubated at 37 °C for 16–18 h, and the antibacterial activity of each compound was recorded by measuring the diameters of the inhibition zones surrounding the wells. DMSO was used as a control. […] Kanamycin was used as the positive control in this experiment.

Enterococcus faecium = assay: agar well diffusion antibacterial assay; assay type: cell-based; conditions: E. faecium, concentration of 50 µg/mL
Experimental: as §1

Staphylococcus aureus = assay: agar well diffusion antibacterial assay; assay type: cell-based; conditions: S. aureus, concentration of 50 µg/mL
Experimental: as §1

S. aureus [1] = assay: MIC determination; assay type: cell-based, Staphylococcus aureus
cytotoxicity assay = assay type: cell-based; conditions: human, HEK293 cells (normal cell line)
From the text: The cytotoxic evaluation of compound 1 against the HEK293 normal cell line was applied from a previous procedure.

S. aureus [2] = system: S. aureus; set-up: method as in PMID 27458464; conditions: cited from earlier work

CC(C)=CCCC1(C)C(CC=C(C)C)CC23CCC(C)(C)OC2=C(C(=O)c2ccc(O)c(O)c2)C(=O)C1(CC=C(C)C)C3=O (centres unmarked) [Compound 1, schomburgkianone I]
IC50 (α-glucosidase): 21.2 µM | antimicrobial activity (Acinetobacter baumannii): failed to show any activity | zone of inhibition at 50 µg/mL (Enterococcus faecium): 20 mm | zone of inhibition at 50 µg/mL (Staphylococcus aureus): 21 mm | MIC (S. aureus [1]; Staphylococcus aureus): 13.3 µM (≈ 8.03 µg/mL) | IC50 (cytotoxicity assay): 87 µM

NC[C@H]1O[C@H](O[C@H]2[C@H](O)[C@@H](O[C@H]3O[C@H](CO)[C@@H](O)[C@H](N)[C@H]3O)[C@H](N)C[C@@H]2N)[C@H](O)[C@@H](O)[C@@H]1O [kanamycin, reference compound]
MIC (S. aureus [1]): 8.26 µM (≈ 4 µg/mL)

Guttiferone BL
activity against S. aureus (S. aureus [2]): low activity
